# Reference: PubChem BioAssay AID179 (DTP/NCI, 2004)
# The source made the active and inactive calls.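 Rule for the calls: active = compounds giving half or more protection of infected cells from virus-caused growth loss, again on retest; inactive = the rest.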 Where a SMILES comes first, the peptide text is derived from it. The star is where a group is joined. Fmoc = O=C(OCC1c2ccccc2-c2ccccc21)*; OtBu = CC(C)(C)O*
# Tested on: CEM cells HIV-1 protection, formazan growth assay
# Test: NCI AIDS Antiviral Assay
# Conditions: for IC50: measured here: growth of uninfected CEM cells
# Outline: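 Five concentrations of each compound were applied to infected and uninfected human CEM cells. Protection from HIV-1 was judged from growth measured with a soluble formazan assay.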
SMILES,EC50 [µM],IC50 [µM],outcome
OCC(O)COc1ccc(Br)cc1 (centres undefined),> 1000,646,
O=S1(=O)c2ccccc2C(O)(c2ccccc2)c2cc3ccccc3n21 (centres undefined),> 27.5,> 27.5,
CC(C)(C)OC(=O)N1CCc2[nH][nH]c(=O)c2C1,> 200,> 200,
CCN(CC)CCNc1ccc([N+](=O)[O-])c2nc3ccc(OC)cc3c(NCCN(CC)CC)c12,> 100,0.178,
C=Cc1cc[n+](CCCCCCCCCCCC)cc1,> 174,102,
CN1CCN(Cc2nc3cccc4c3c([n+]2[O-])-c2ccccc2-4)CC1,,,inactive
C/C=C(/C)C(=O)O[C@@H]1c2c(C)coc2C[C@H]2CC[C@H](O)[C@H](C)[C@]21C,> 200,58.9,
O=C1OC(OC/C(Br)=C(/Br)COC2OC(=O)C(Cl)=C2Cl)C(Cl)=C1Cl (centres undefined),> 200,3.47,
O=C1c2ccccc2C(=O)N1CCc1ncc[nH]1,> 200,> 200,
Cc1cc(O)c(/C=N/c2nc(-c3ccc([N+](=O)[O-])cc3)cs2)c(=O)o1,> 200,> 200,
c1ccc2[nH]c3[nH]c4[nH]c5ccccc5[nH]c4[nH]c3[nH]c2c1,> 50.1,> 50.1,
COc1cc(/C=C/C(=N\NS(=O)(=O)c2ccc(C)cc2)c2sc(NNC(C)=O)nc2C)ccc1O,> 46.8,> 46.8,
CCOP(=O)(OCC)/C(C#N)=C/c1ccc[nH]1,> 977,575,
COc1ccc(C2=Nc3ccccc3N=C(SC)C2)cc1,2.4,17.8,
O=C(O)Cc1cc(=O)oc2cc(O)c(Cl)cc12,> 708,> 708,
Cc1[nH]c(=O)n2c(C)nnc2c1C(=O)Nc1cc(Cl)cc(Cl)c1,,,inactive
O=c1oc2ccccc2c(O)c1C(c1ccccc1)c1c(O)c2ccccc2oc1=O,> 200,33.1,
CCCCOC(=Nc1ccccc1)N(c1ccccc1)c1ccccc1,> 200,36.3,
CSC1=N/C(=C\c2ccc(Cl)cc2)C(=O)N1CN1CCCCC1,> 200,> 200,
[O-][n+]1nc(N2CCOCC2)nc2ccccc21,> 200,> 200,
C=CCc1cc(OC)c(O)c(C(=O)/C=C/c2ccc(OC)c(OC)c2)c1,> 14.8,> 14.8,
CC1=Nc2cc(C(=O)c3ccccc3)ccc2N=C(c2c(O)c3ccc4ccccc4c3oc2=O)C1,> 20,> 20,

SMILES,EC50 [µM],IC50 [µM],outcome
Cc1cc2c(=O)cc(-c3ccc(C(=O)O)cc3)oc2c(C(=O)O)c1C,,,inactive
CC1(C)CC(=O)C2=C(C1)NC1=C(C2)C(=O)CC(C)(C)C1,> 200,> 200,
O=C(C1=CCC2(CC1)OCCO2)N(Cc1ccccc1)c1ccccc1I,> 200,32.4,
CC1=N/C(=C\c2cccc(Cl)c2)C(=O)O1,> 85.1,> 85.1,
O=C1Nc2ccc([N+](=O)[O-])c3c([N+](=O)[O-])ccc1c23,> 200,1.02,
COc1cc2c(cc1OC)C(=O)C1(C2)[C@H](c2ccccc2)C2C(=O)c3cc(OC)c(OC)cc3C2[C@H]1c1ccccc1 (some centres undefined),> 200,> 200,
CC(=O)Nc1c(I)c(C(=O)O)c(I)c(N(C)C(C)=O)c1I,> 200,> 200,
C=CCOc1ccc(N)c([N+](=O)[O-])c1,> 200,> 200,
O=c1[nH]c(Nc2cccc(C(F)(F)F)c2)nc2nc[nH]c12,> 200,97.7,
C=CCC(N(C)C(=O)[C@H](Cc1ccccc1)NC(=O)OCc1ccccc1)P(=O)(Oc1ccccc1)Oc1ccccc1 (some centres undefined),> 200,77.6,
CC1(C)OC(=O)C(=Cc2ccc(O)cc2)C(=O)O1,> 1000,550,
O=C(O)c1cc(C(=CCC23CC4CC(CC(C4)C2)C3)c2cc(Cl)c(O)c(C(=O)O)c2)cc(Cl)c1O,> 200,105,
Cc1cc(N(CCC#N)CCC#N)ccc1/C(N=Nc1ccc([N+](=O)[O-])cc1)=N\NC(=O)c1cc(Cl)ccc1O,> 200,22.9,
CC(C)=CC(=O)OC1C2C(C)=CC(O)C(O)C2(C)C2C3(O)OCC24C(CC(=O)OC14)C(C)C3O (centres undefined),> 2,0.0912,
N#CCCN(CCC#N)C(=O)c1cccc(C(=O)N(CCC#N)CCC#N)c1,,,inactive
CC1CCC/C1=C(/I)C(=O)c1ccccc1 (centres undefined),> 200,58.9,
CC1CC(N)=C(C#N)C1(C#N)C#N (centres undefined),> 200,138,
OC(C/C=N/N=C/CC(O)(C(F)(F)Cl)C(F)(F)Cl)(C(F)(F)Cl)C(F)(F)Cl,> 200,89.1,
COc1cc2c3c(c1OCc1ccccc1)NCCC3NCC2 (centres undefined),,,inactive
CC(=O)NCC1(c2ccccc2)CCN(CC2COc3ccccc3O2)CC1 (centres undefined),> 200,> 200,
COC(=O)C1CC2C=CC=CC(=O)C2(C)C1 (centres undefined),> 251,33.1,
CC(C)C(NC(=O)OCC1c2ccccc2-c2ccccc21)C(=O)NC(CCC(=O)OC(C)(C)C)C(=O)OC(C)(C)C (centres undefined) (Fmoc-Val-Glu(OtBu)-OtBu; configuration not given here),> 200,24.5,

SMILES,EC50 [µM],IC50 [µM],outcome
N#C/C(=C\c1ccccc1)c1ccc(F)cc1,> 200,53.7,
CNc1ccccc1S(=O)(=O)c1ccccc1Br,> 200,18.2,
N=c1ncn(Cc2ccccc2)c2nc[nH]c12,> 200,> 200,
CN(c1ccc(Cl)cc1)S(=O)(=O)c1cccc([N+](=O)[O-])c1,> 200,,
C/C(COc1ccccc1)=N\NC(N)=S,,,inactive
CS(=O)(=O)Sc1ccc(Cl)cc1,> 132,9.33,
CCOC(=O)C(NNc1ccccc1)C(c1ccccc1)[P+](c1ccccc1)(c1ccccc1)c1ccccc1 (centres undefined),> 200,3.63,
CN1C(=O)C(O)CC1c1ccccc1C(F)(F)F (centres undefined),> 200,> 200,
O=C(O)CC1(CC(=O)Nc2nccs2)CCCCC1,> 126,> 126,
CN1CC2=C(NCNS2(=O)=O)N(C)C1,> 148,> 148,
Cc1ccc(S(=O)(=O)SCCN)cc1,> 115,> 100,
CC1(C)CCc2cc3c(cc2O1)OCCC3=O,,,inactive
COc1ccccc1NC(=O)CC(=O)N1N=C(c2ccccc2)C(N=Nc2ccc(Cl)cc2)C1=O (centres undefined),> 74.1,64.6,
O=C1OC2C3Cc4ccccc4N2C1C3 (centres undefined),> 646,363,
CCC[n+]1nc2ccccc2c(=Nc2ccccc2[N+](=O)[O-])[n-]1,> 23.4,> 23.4,
C[C@]12CC[C@H](OC(=O)CCC(=O)O)C[C@H]1CC[C@@H]1[C@@H]2CC[C@]2(C)C(c3ccc(=O)oc3)CC[C@]12O (some centres undefined),> 0.2,0.0162,
CC[N+](C)(C)c1ccc(C(=C2C=CC(=[N+](C)C)C=C2)c2ccc(N(C)C)cc2)cc1,,,inactive
Cc1cc(=O)n2[nH]nnc2n1,> 200,> 200,
COc1cccc(C2c3cc4c(cc3OC(N3CCOCC3)C2C)OCO4)c1OC (centres undefined),> 200,1.7,
O=[N+]([O-])c1ccc(N2N=C(c3c(O)ccc4ccccc34)CC2c2ccc(Cl)cc2)c([N+](=O)[O-])c1 (centres undefined),> 200,16.6,
